ChEMBL document CHEMBL4831516, “Development of Membrane-Active Honokiol/Magnolol Amphiphiles as Potent Antibacterial Agents against Methicillin-Resistant Staphylococcus aureus (MRSA)” (J Med Chem, 2021)
Activity calls are given as the source filed them. The rule behind the calls is not given here.

Legend:
[1] = tested on: Staphylococcus aureus; test: Antibacterial activity against Staphylococcus aureus ATCC29213 assessed as inhibition of visible growth incubated for 16 to 18 hrs by CLSI method; assay type: functional; conditions: time 16-18 hrs, read-out: MIC100
[2] = tested on: Enterococcus faecalis; test: Antibacterial activity against Enterococcus faecalis ATCC29212 assessed as inhibition of visible growth incubated for 16 to 18 hrs by CLSI method; assay type: functional; conditions: time 16-18 hrs, read-out: MIC100
[3] = tested on: Bacillus subtilis; test: Antibacterial activity against Bacillus subtilis assessed as inhibition of visible growth incubated for 16 to 18 hrs by CLSI method; assay type: functional; conditions: time 16-18 hrs, read-out: MIC100
[4] = tested on: Micrococcus luteus; test: Antibacterial activity against Micrococcus luteus assessed as inhibition of visible growth incubated for 16 to 18 hrs by CLSI method; assay type: functional; conditions: time 16-18 hrs, read-out: MIC100
[5] = tested on: Escherichia coli; test: Antibacterial activity against Escherichia coli ATCC25922 assessed as inhibition of visible growth incubated for 16 to 18 hrs by CLSI method; assay type: functional; conditions: time 16-18 hrs, read-out: MIC100
[6] = tested on: Stenotrophomonas maltophilia; test: Antibacterial activity against Stenotrophomonas maltophilia assessed as inhibition of visible growth incubated for 16 to 18 hrs by CLSI method; assay type: functional; conditions: time 16-18 hrs, read-out: MIC100
[7] = tested on: Salmonella enterica; test: Antibacterial activity against Salmonella enterica 349812 assessed as inhibition of visible growth incubated for 16 to 18 hrs by CLSI method; assay type: functional; conditions: time 16-18 hrs, read-out: MIC100
[8] = Hemolytic activity in sheep RBC assessed as hemolysis incubated for 1 hr; assay type: ADME, cell-based, Ovis aries, Erythrocyte; conditions: sheep red blood cells (erythrocytes)
[9] = tested on: Staphylococcus aureus; test: Antibacterial activity against methicillin-resistant Staphylococcus aureus clinical isolate M-11 assessed as inhibition of visible growth incubated for 16 to 18 hrs by CLSI method; assay type: functional; conditions: time 16-18 hrs, read-out: MIC100
[10] = tested on: Staphylococcus aureus; test: Antibacterial activity against methicillin-resistant Staphylococcus aureus clinical isolate M-12 assessed as inhibition of visible growth incubated for 16 to 18 hrs by CLSI method; assay type: functional; conditions: time 16-18 hrs, read-out: MIC100
[11] = tested on: Staphylococcus aureus; test: Antibacterial activity against methicillin-resistant Staphylococcus aureus clinical isolate M-14 assessed as inhibition of visible growth incubated for 16 to 18 hrs by CLSI method; assay type: functional; conditions: time 16-18 hrs, read-out: MIC100
[12] = tested on: Staphylococcus aureus; test: Antibacterial activity against methicillin-resistant Staphylococcus aureus clinical isolate M-15 assessed as inhibition of visible growth incubated for 16 to 18 hrs by CLSI method; assay type: functional; conditions: time 16-18 hrs, read-out: MIC100
[13] = tested on: Staphylococcus aureus; test: Antibacterial activity against methicillin-resistant Staphylococcus aureus clinical isolate M-16 assessed as inhibition of visible growth incubated for 16 to 18 hrs by CLSI method; assay type: functional; conditions: time 16-18 hrs, read-out: MIC100
[14] = tested on: Staphylococcus aureus; test: Antibacterial activity against methicillin-resistant Staphylococcus aureus clinical isolate M-17 assessed as inhibition of visible growth incubated for 16 to 18 hrs by CLSI method; assay type: functional; conditions: time 16-18 hrs, read-out: MIC100
[15] = tested on: Staphylococcus aureus; test: Antibacterial activity against methicillin-resistant Staphylococcus aureus clinical isolate M-18 assessed as inhibition of visible growth incubated for 16 to 18 hrs by CLSI method; assay type: functional; conditions: time 16-18 hrs, read-out: MIC100
[16] = tested on: Staphylococcus aureus; test: Antibacterial activity against methicillin-resistant Staphylococcus aureus clinical isolate M-19 assessed as inhibition of visible growth incubated for 16 to 18 hrs by CLSI method; assay type: functional; conditions: time 16-18 hrs, read-out: MIC100
[17] = tested on: Staphylococcus aureus; test: Bactericidal activity against methicillin-resistant Staphylococcus aureus clinical isolate 16 assessed as reduction in colony formation in early stage at 8 times of MIC measured within 30 mins by time-kill assay; assay type: functional, organism-based
[18] = tested on: Staphylococcus aureus; test: Bactericidal activity against methicillin-resistant Staphylococcus aureus clinical isolate 16 assessed as reduction in colony formation in late stage at 8 times of MIC measured within 2 hrs by time-kill assay; assay type: functional, organism-based
[19] = tested on: Staphylococcus aureus; test: Bactericidal activity against methicillin-resistant Staphylococcus aureus clinical isolate 16 assessed as reduction in colony formation at 1 times of MIC measured upto 8 hrs by time-kill assay; assay type: functional, organism-based; conditions: time hrs <=8
[20] = tested on: Staphylococcus aureus; test: Antibacterial activity against […] at sublethal concentration treated over 20 serial passages by resistance development assay; assay type: functional, organism-based
[21] = tested on: Staphylococcus aureus; test: Antibacterial activity against […] assessed as fold increase in MIC at sublethal concentration treated over 20 serial passages by resistance development assay; assay type: functional
[22] = tested on: Staphylococcus aureus; test: Antibiofilm activity against Staphylococcus aureus assessed as decrease in viable bacteria in biofilm at 2 to 64 ug/ml incubated for 16 to 18 hrs by biofilm disruption assay; assay type: functional, organism-based; conditions: dose 2-64 µg/ml, time 16-18 hrs
[23] = tested on: Staphylococcus aureus; test: Antibiofilm activity against Staphylococcus aureus assessed as reduction in colony forming unit at 64 ug/ml incubated for 16 to 18 hrs by biofilm disruption assay; assay type: functional; conditions: dose 64 µg/ml; time 16-18 hrs
[24] = tested on: Staphylococcus aureus; test: Antibiofilm activity against Staphylococcus aureus assessed as destruction of biofilm at 64 ug/ml incubated for 16 to 18 hrs by crystal violet based biofilm disruption assay relative to control; assay type: functional; conditions: dose 64 µg/ml; time 16-18 hrs
[25] = tested on: Cell membrane; test: Induction of membrane disruption in methicillin-resistant Staphylococcus aureus clinical isolate 16 at 4 to 32 ug/ml measured for 16 mins by DiSC35 dye based fluorescence assay; assay type: subcellular; conditions: dose 4-32 µg/ml
[26] = tested on: Cell membrane; test: Induction of cell membrane permeability in methicillin-resistant Staphylococcus aureus clinical isolate 16 assessed as fluorescent intensity by SYTOX dye based fluorescence assay; assay type: subcellular
[27] = tested on: Cell membrane; test: Induction of membrane disruption in methicillin-resistant Staphylococcus aureus clinical isolate 16 assessed as increase in blue fluorescence at 10 ug/ml by DAPI staining based confocal laser scanning microscopy; conditions: dose 10.0 µg/ml
[28] = tested on: Cell membrane; test: Induction of membrane disruption in methicillin-resistant Staphylococcus aureus clinical isolate 16 assessed as increase in red fluorescence at 10 ug/ml by PI staining based confocal laser scanning microscopy; conditions: dose 10.0 µg/ml
[29] = tested on: Cell membrane; test: Induction of membrane morphological changes in methicillin-resistant Staphylococcus aureus clinical isolate 16 assessed as visible cell surface wrinkles and disruption at 10 ug/ml by scanning electron microscopy; assay type: subcellular; conditions: dose 10.0 µg/ml
[30] = tested on: L02; test: Cytotoxicity against human L02 cells assessed as cell viability at 128 ug/ml incubated for 24 hrs by CCK8 assay; assay type: cell-based; conditions: l02, 24 h, dose 128 µg/ml
[31] = tested on: L02; test: Cytotoxicity against human LO2 cells assessed as cell morphology at 128 ug/ml incubated for 24 hrs by live/dead staining based fluorescence microscopy; conditions: l02, 24 h, dose 128 µg/ml
[32] = Toxicity in BALB/c mouse assessed as abnormalities and pathological changes in kidney at 25 mg/kg, sc once a day for 3 days by H and E staining based assay; assay type: organism-based; conditions: in vivo, 72 h, time 3 day
[33] = tested on: Staphylococcus aureus; test: Antibacterial activity against methicillin-resistant Staphylococcus aureus clinical isolate 16 infected in BALB/c mouse assessed as reduction in inflammatory cell inflammation in spleen at 25 mg/kg, sc once a day for 3 days by H and E staining based assay; assay type: functional, organism-based; conditions: time 3.0 day
[34] = tested on: Staphylococcus aureus; test: Antibacterial activity against methicillin-resistant Staphylococcus aureus clinical isolate 16 infected in BALB/c mouse assessed as reduction in bacterial load in liver at 25 mg/kg, sc once a day for 3 days by H and E staining based assay; assay type: functional, organism-based; conditions: time 3.0 day
[35] = tested on: Staphylococcus aureus; test: Antibacterial activity against methicillin-resistant Staphylococcus aureus clinical isolate 16 infected in BALB/c mouse assessed as reduction in bacterial load in spleen at 25 mg/kg, sc once a day for 3 days by H and E staining based assay; assay type: functional, organism-based; conditions: time 3.0 day
[36] = tested on: Staphylococcus aureus; test: Antibacterial activity against methicillin-resistant Staphylococcus aureus clinical isolate 16 infected in BALB/c mouse assessed as reduction in bacterial load in kidney at 25 mg/kg, sc once a day for 3 days by H and E staining based assay; assay type: functional, organism-based; conditions: time 3.0 day

C=CCc1ccc(OCCC[N+](C)(C)CC(=O)NCCCC)c(-c2ccc(OCCC[N+](C)(C)CC(=O)NCCCC)c(CC=C)c2)c1.[Br-].[Br-]
MIC [1]: 1 µg/mL | MIC [2]: 2 µg/mL | MIC [3]: 1 µg/mL | MIC [4]: 2 µg/mL | MIC [5]: 4 µg/mL | MIC [6]: 8 µg/mL | MIC [7]: 8 µg/mL | HC50 at 1 h [8]: 789 µg/mL | MIC [9]: 1 µg/mL | MIC [10]: 0.5 µg/mL | MIC [11]: 1 µg/mL | MIC [12]: 0.5 µg/mL | MIC [13]: 1 µg/mL | MIC [14]: 0.5 µg/mL | MIC [15]: 0.5 µg/mL | MIC [16]: 3 µg/mL | Activity [17]: Active | Activity [18]: Active | Activity [19]: Active | Activity [20]: Active | fold change (FC) [21]: 128 | Activity [22]: Active | Activity [23]: 3.8 log10CFU/ml | Activity [24]: 20% | Activity [25]: Active | Activity [26]: Dose-Dependent Effect | Activity [27]: Dose-Dependent Effect | Activity [28]: Active | Activity [29]: Active | Activity [30]: Non-Toxic | Activity [31]: Non-Toxic | Activity [32]: Non-Toxic | Activity [33]: Active | Activity [34]: Active | Activity [35]: Active | Activity [36]: Active
